# Assay results published in patent publication US10766896B2, “Imidazo[4,5-c] ring compounds containing guanidine substituted benzamide groups” (3M INNOVATIVE PROPERTIES COMPANY, priority 2017, dated 2020).
# Counter-ions that a name gives are not always drawn.
# System: Human peripheral blood mononuclear cells (PBMC)
# Experiment: Cytokine Induction in Human Cells (PBMC; IFN-alpha by ELISA, IFN-gamma and TNF-alpha by multiplex bead assay)
# Type: cell-based
# Conditions: 21-24 hrs culture, lowest concentration inducing cytokine at least 2× greater than negative control; for MEC to Induce Cytokine IFN-alpha: ELISA; for MEC to Induce Cytokine IFN-gamma / MEC to Induce Cytokine TNF-alpha: multiplex bead assay
# Method: Interferon-alpha (IFN-alpha), interferon-gamma (IFN-gamma) and tumor necrosis factor-alpha (TNF-alpha) cytokine levels (pg/mL) were measured using the procedure ‘Cytokine Induction of Human Cells’ described below. The only difference was that for Examples 2, 3, and 4 the diluted compounds were transferred to the PBMCs to achieve final compound concentrations of 100, 33.3, 11.1, 3.7, 1.23, and 0.41 micromolar. The positive control wells contained imiquimod serially diluted to concentrations of 100, 33.3, 11.1, 3.7, 1.23, and 0.41 micromolar. For Example 5, the diluted compound and positive control (imiquimod) were individually transferred to the PBMCs to achieve final concentrations of 30, 10, 3.3, 1.1, 0.37, 0.12, 0.04, and 0.01 micromolar. According to the procedure described below, IFN-alpha cytokine levels (pg/mL) were measured by using the ELISA assay (human IFN-α, pan specific, Mabtech, Cincinnati, Ohio). IFN-gamma and TNF-alpha levels (pg/mL) were measured by using the multiplex bead assay (magnetic beads, R & D Systems Minneapolis, Minn.) according to the manufacturer's instructions. […] Specifically, the minimum effective concentration of each compound (micromolar) was determined as the lowest concentration of the compound that induced a measured cytokine response at a level ([…]) that was at least 2× greater than that observed with the negative control wells.
# Cytokine Induction in Human Cells
# Whole blood can be obtained from healthy human donors and collected by venipuncture into vacutainer tubes or syringes containing EDTA. Human peripheral blood mononuclear cells (PBMC) are purified from the whole blood by density gradient centrifugation. Histopaque 1077 (15 mL, Sigma, St. Louis, Mo.) is transferred to 6×50 mL sterile polypropylene conical tubes. The Histopaque is overlayed with 15-25 mL of blood diluted 1:2 in Hank's Balanced Salts Solution (HBSS) (Gibco, Life Technology, Grand Island N.Y.). The tubes are then centrifuged at 1370 rpm for 30 minutes at 20° C., with no brake (400×g, GH 3.8A Rotor).
# The interface (buffy coat) containing the PBMC is collected and placed in a new sterile 50 mL conical polypropylene centrifuge tube. The PBMC are mixed with an equal volume of HBSS about 20 mL from the interface and about 20 mL of HBSS), and then centrifuged at 1090 rpm, 10 min, 20° C., with brake (270×g, GH 3.8A Rotor). After completing centrifugation, the cells are resuspended in 2-3 mL ACK Red blood cell lysis buffer (ammonium chloride potassium solution, Gibco, Life Technology) and incubated for 2-5 minutes at 20° C. Next, HBSS (40 mL) is added to the cells, and the sample is centrifuged at 270×g for 10 min at 20° C. The supernatant is decanted, and the cell pellet is resuspended in 5 mL AIM V® Medium (Gibco, Life Technology). Cell aggregates and debris are removed by filtering the cell solution through a BD Falcon 70 micron nylon cell strainer (BD Biosciences, San Jose, Calif.).
# The number of viable cells is determined by counting with a Miltenyi FACS instrument (Miltenyi Biotec Inc., San Diego, Calif.) or by using a hemacytometer. For determining cell viability with a hemacytometer, the cells are diluted 1/10 in 0.4% trypan blue and HBSS (specifically, 50 microliter of trypan blue+40 microliter of HBSS+10 microliter of cell solution are added to a microfuge tube and mixed). Ten microliters of the diluted cells are then applied to the hemacytometer, and the number of viable PBMC are determined by microscopy.
# The PBMC sample is then resuspended in 96-well plates at a concentration of 8×10^5 cells/well in 0.1 mL of AIM-V medium. Each compound is solubilized in DMSO to create a 3 mM stock solution. The stock solution is then further diluted with AIM-V medium to prepare the serial dilutions. The diluted compound (100 microliters) is then transferred to the PBMCs to achieve final compound concentrations of 10, 1, 0.1, 0.01, 0.001, 0.0001 micromolar. The plates also have both positive and negative controls. […]
SMILES,MEC to Induce Cytokine IFN-alpha [µM],MEC to Induce Cytokine IFN-gamma [µM],MEC to Induce Cytokine TNF-alpha [µM]
"CCCCc1nc2c(N)nc3ccccc3c2n1CCOCCNC(=O)c1ccc(CNC(=N)N)cc1 [Example 2, N-[2-[2-(4-amino-2-butyl-imidazo[4,5-c]quinolin-1-yl)ethoxy]ethyl]-4-(guanidinomethyl)benzamide dihydrochloride]",1.2,1.2,3.7
"CCCc1nc2c(N)nc3ccccc3c2n1CCCCNC(=O)c1ccc(CNC(=N)N)cc1 [Example 3, N-[4-(4-amino-2-propyl-imidazo[4,5-c]quinolin-1-yl)butyl]-4-(guanidinomethyl)benzamide dihydrochloride]",3.7,3.7,3.7
"CCCCc1nc2c(N)nc3ccccc3c2n1CCCCNC(=O)c1ccc(NC(=N)N)cc1 [Example 4, N-[4-(4-amino-2-butyl-imidazo[4,5-c]quinolin-1-yl)butyl]-4-guanidinobenzamide dihydrochloride]",0.4,3.7,1.2
"CCCCc1nc2c(N)nc3ccccc3c2n1CCCCNC(=O)c1ccc(CNC(=N)N)cc1 [Example 5, N-[4-(4-amino-2-butyl-imidazo[4,5-c]quinolin-1-yl)butyl]-4-(guanidinomethyl)benzamide dihydrochloride]",0.37,1.1,–
